Source: EP4789666A1, “RNA M6A REGULATOR COMPOSITION, PREPARATION METHOD THEREFOR, AND USE THEREOF” (SHANGHAI MERNA THERAPEUTICS CO. LTD, priority 2023, dated 2025)
Where two headings read alike, the source gives them in different places.

Key:
[1] = system: human HaCaT keratinocytes; assay: m6A methylation level of human keratinocytes (EpiQuik m6A RNA methylation quantification kit); type: cell-based; conditions: 24 hours, relative to control group 1
Description: HaCaT cells were cultured in DMEM culture medium containing 10% fetal bovine serum, 100 U/mL penicillin, and 100 µg/mL streptomycin. Culture dishes were placed in an incubator containing 5% CO2 for culture at 37°C for 24 hours. An equal volume of DMSO was added in control group 1, 50 nM sorafenib, capecitabine, docetaxel, and osimertinib were respectively added in control groups A, B, C, and D, and 400 nM test compounds or nicotinamide were respectively added in sample groups A1, A2, B1, B2, C1, C2, D1, and D2 after the addition of 50 nM corresponding compounds. The cells were continuously cultured for 24 hours, washed with PBS, and then collected by high-speed centrifugation. Total RNA was extracted using Trizol reagent (Sigma Aldrich), and RNA m6A methylation of a sample was quantitatively detected using an EpiQuik m6A RNA methylation quantification kit. The concentrations of positive control samples for a standard curve were 0.01 ng/µl, 0.02 ng/µl, 0.05 ng/µl, 0.1 ng/µl, 0.2 ng/µl, and 0.5 ng/µl. The absorbance at 450 nm was read using a microplate reader (Tecan GENios). A quantitative calculation formula for m6A is as follows: m6A (ng) = (absorbanceofsamplewell-absorbanceofbackgroundwell)/slope of standard curve [formula] m6A (%) = m6A (ng)/RNA amount of sample (ng)*100%. [formula]
Table 1: Fold change in m6A methylation level relative to control group 1

[2] = Pharmacokinetic study after single topical administration of ointment to the skin of SD rats (LC-MS/MS); type: in vivo; conditions: rat, 20 mg/cm^2, SD rats, 20 mg/cm^2, 20 cm^2, mean
Description: 6 SD rats were divided into two groups, with 3 rats per group, where one group received an ointment containing the compound of formula (I) by single topical application to the dorsal skin at 20 mg/cm^2 (3% suspension ointment), with an application area of 20 cm^2, and the other group received an ointment containing the compound of formula (I) by single topical application to the dorsal skin at 20 mg/cm^2 (10% suspension ointment), with an application area of 20 cm^2. The plasma concentration and dorsal skin tissue homogenate concentration of the compound of formula (I) were determined by an LC-MS/MS method.

[3] = Pharmacokinetic study after single topical administration of ointment to the skin of Bama miniature pigs (LC-MS/MS); type: in vivo; conditions: pig, 3% suspension ointment, 20 mg/cm^2, mean
Description: 2 Bama miniature pigs respectively received an ointment containing the compound of formula (I) by single topical application to the dorsal and abdominal skin at 20 mg/cm^2 (3% suspension ointment), with a total application area of 6.8% of a body surface area, and a ratio of application areas between the dorsal and abdominal skin being approximately 1:1. The plasma concentration and skin tissue homogenate concentration of the compound of formula (I) were determined by an LC-MS/MS method.

[4] = Stability test of binary mixtures of the compound of formula (I) and penetration enhancers; type: physicochemical; conditions: binary mixture 10:1, 40°C/75%RH
Description: Different types of penetration enhancers and the compound of formula (I) were mixed at a weight ratio of 10:1 to carry out a stability test under accelerated conditions of 40°C/75%RH. Table 15: Stability test of binary mixtures of the compound of formula (I) and penetration enhancers

[5] = Pharmacokinetic study after single topical administration of ointment to the skin of CD-1 mice (LC-MS/MS); type: in vivo; conditions: 3% suspension ointment
Description: 6 CD-1 mice were divided into 2 groups, with 3 mice per group, and then respectively received an ointment containing the compound of formula (I) by single topical administration to the backs at 1 mg/cm^2 (3% suspension ointment) with an application area of 1 cm^2. The plasma concentration and skin tissue homogenate concentration of the compound of formula (I) were determined by an LC-MS/MS method.

[6] = dorsal skin tissue homogenate, 1 mg/cm^2, mean
[7] = mouse, topical or ocular, plasma, 1 mg/cm^2, mean

concentration at 24 h ([2]; dorsal skin tissue homogenate, dorsal skin homogenate, 3% suspension ointment, read-out: Drug concentration in skin tissues at 24 h): 161000 ng/g
concentration at 24 h ([2]; dorsal skin tissue homogenate, dorsal skin homogenate, 10% suspension ointment, read-out: Drug concentration in skin tissues at 24 h): 800000 ng/g
concentration at 24 h ([2]; plasma, 3% suspension ointment, read-out: Plasma drug concentration at 24 h): 3.21 ng/mL
concentration at 24 h ([2]; plasma, 10% suspension ointment, read-out: Plasma drug concentration at 24 h): 17.3 ng/mL
concentration at 24 h ([3]; read-out: Drug concentration in dorsal dermis skin tissues at 24 h): 88300 ng/g
concentration at 24 h ([3]; abdominal skin tissue, read-out: Drug concentration in abdominal skin tissues at 24 h): 111000 ng/g
concentration at 24 h ([3]; plasma, read-out: Plasma drug concentration at 24 h): 17.7 ng/mL
AUC(0-t) ([3]; topical or ocular, plasma): 304 ng·h/mL
Cmax ([3]; topical or ocular, plasma): 21.6 ng/mL
MRT inf ([3]; topical or ocular, plasma): 15.2 h
Tmax ([3]; topical or ocular, plasma): 16 h
stability in diisopropyl oxalate [4]: unstable
stability in propylene carbonate [4]: unstable
Plasma drug concentration at 24 h ([5]; 1 mg/cm^2): Below a lower detection limit
Drug concentration in skin tissues at 4 h [5, 6]: 33,033 ng/g
Drug concentration in skin tissues at 24 h [5, 6]: 7,907 ng/g
concentration at 4 h ([5]; mouse, dorsal skin tissue homogenate, 1 mg/cm^2, mean, read-out: Drug concentration in skin tissues at 4 h): 33000 ng/g
concentration at 24 h ([5]; mouse, dorsal skin tissue homogenate, 1 mg/cm^2, mean, read-out: Drug concentration in skin tissues at 24 h): 7910 ng/g
concentration at 4 h ([5]; mouse, plasma, 1 mg/cm^2, mean, read-out: Plasma drug concentration at 4 h): 6.15 ng/mL
Cmax ([5]; mouse, topical or ocular, plasma, 1 mg/cm^2, 1 cm^2, mean): 14 ng/mL
AUC(0-inf) [5, 7]: 57.5 ng·h/mL
AUC(0-t) [5, 7]: 40.7 ng·h/mL
MRT inf [5, 7]: 5.54 h
Tmax [5, 7]: 1.67 h
half-life [5, 7]: 5.15 h
AUC Extr ([5]; plasma, 1 mg/cm^2, mean): 18.9%
AUCInf/Dose ([5]; plasma, 1 mg/cm^2, mean): 1.63 kg·ng·h/mL/mg
Structure (SMILES): NC(=O)[C@H]1CCCc2c1[nH]c1ccc(Cl)cc21 [Compound of formula (I), (S)-6-chloro-2,3,4,9-tetrahydro-1H-carbazole-carboxamide]
m6A fold change ([1]; 400 nM after 50 nM capecitabine): 1.1
m6A fold change ([1]; 400 nM after 50 nM docetaxel): 1.0
m6A fold change ([1]; 400 nM after 50 nM osimertinib): 1.2
m6A fold change ([1]; 400 nM after 50 nM sorafenib): 1.4
